Eleven compounds from patent US20240316038A1, “APOL1 INHIBITORS AND METHODS OF USE” (Maze Therapeutics, Inc., priority 2021, published 2024) can be followed below.

The term EC50 denotes the midpoint of the concentration-response curve. In general, AC50 refers to the midpoint of the concentration-response curve, whichever way the signal moves.

Some results are limits rather than exact numbers.

The target in assay [1] is T1, APOL1 G2 (Homo sapiens, UniProt O14791, DEL388-389).
T1 construct: expressed in transfected cells; host or cells: HEK293 T-REx clonal lines: HEK T-REx/GCaMP6f/APOL1 G2 K6.3 in A1, HEK293/T-REx APOL1 G2/clone #2 in A2
T1 sequence (O14791 with tags, fused parts or gaps DEL388-389): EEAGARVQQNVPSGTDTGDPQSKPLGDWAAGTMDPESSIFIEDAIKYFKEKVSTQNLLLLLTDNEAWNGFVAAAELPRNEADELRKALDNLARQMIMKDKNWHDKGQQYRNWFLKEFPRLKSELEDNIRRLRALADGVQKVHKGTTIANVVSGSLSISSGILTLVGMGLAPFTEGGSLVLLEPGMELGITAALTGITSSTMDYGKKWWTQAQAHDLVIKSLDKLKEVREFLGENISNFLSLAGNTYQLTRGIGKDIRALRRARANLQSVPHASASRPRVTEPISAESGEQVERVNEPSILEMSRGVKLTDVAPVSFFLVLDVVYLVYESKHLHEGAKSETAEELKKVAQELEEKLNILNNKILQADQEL
In words: Rescue of HEK293 cell death caused by overexpression of APOL1 (CellTiter-Glo luminescence), HEK293/T-REx APOL1 G2/clone #2. Format: cell-based. Particulars: reversal of cell death caused by overexpression of APOL1; geometric mean of at least 2 assay runs, † = single assay run (technical duplicate). The gist of the method:
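HEK293/T-REx APOL1 G2 clone #2 cells, 5,000/well, induced with 6 ng/mL doxycycline and exposed to compound (8-point, 3-fold dilutions, 0.5% DMSO) for 17 h at 37 °C. Viability by CellTiter-Glo luminescence; EC50 for reversal of APOL1-induced death from a four-parameter logistic fit, geometric mean of ≥2 runs.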
Background: ATP-based viability assays read luminescence as a measure of living cells.

Assay [2] has as its target T1, APOL1 G2. In words: APOL1 calcium transport inhibition assay (GCaMP6f calcium influx, FLIPR) in HEK T-REx/GCaMP6f/APOL1 G2 K6.3 cells. Format: cell-based. To be noted: inhibition of APOL1-mediated calcium influx; geometric mean of at least 2 assay runs, † = single assay run (technical duplicate). The procedure, abridged:
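HEK293 cells stably expressing GCaMP6f, APOL1 G2 induced 6 h with doxycycline (20 ng/mL added), then washed into Ca2+-free Tyrode's buffer pH 7.4. Compounds (8-point dose response) preincubated 10 min at room temperature, then Ca2+ injected to 5 mM final and influx read on FLIPR. AC50 reported as geometric mean of runs.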

For the compound `CN(c1ccc(OC[C@H](O)CN2CCC(c3cccc(Cl)c3)C2)cc1)S(C)(=O)=O` (stereo partly drawn) [Compound 77, N-(4-((2R)-3-(3-(3-chlorophenyl)pyrro-lidin-1-yl)-2-hydroxypropoxy)phe-nyl)-N-methylmethanesulfon-amide], the EC50 on APOL1 G2 [1] was above 6300 nM. Besides, the AC50 at APOL1 G2 [2] stood at 1670 nM.

For the compound `C[C@@H]1CN(CCc2cccc(Cl)c2)C[C@H]1COc1ccc(S(=O)(=O)CCS(C)(=O)=O)cc1` [Compound 107, (3S,4S)-1-[2-(3-chlorophenyl)ethy 1]-3-{[4-(2-methanesulfonyl-ethanesulfonyl)phenoxy]methyl}-4-methyl-pyrrolidine], the EC50 on APOL1 G2 [1] was determined as 80.9 nM. Besides, the AC50 on APOL1 G2 [2] was found to be 91.9 nM.

For the compound `CC(Cc1cccc(Cl)c1)NC[C@@H](O)COc1ccc(N(C)S(C)(=O)=O)cc1` (single isomer, unassigned) [Compound 88, N-(4-((R)-3-(((S) or (R)-1-(3-chlorophenyl)propan-2-yl)amino)-2-hydroxypropoxy)phe-nyl)-N-methylmethanesulfon-amide], at APOL1 G2 [1], the EC50 was determined as 698 nM. Further, at APOL1 G2 [2], the AC50 worked out at 338 nM.

Regarding `COc1ccc(Cl)cc1CCN1CCN[C@H](COc2ccc(S(C)(=O)=O)cc2)C1` [Compound 191, (3S)-1-[2-(5-chloro-2-methoxyphenyl)ethyl]-3-[(4-methanesulfonylphenoxy)methyl]piperazine], the 50% effective concentration (EC50) at APOL1 G2 [1] is 663 nM. Besides, the AC50 on APOL1 G2 [2] stood at 228 nM.

Regarding `CS(=O)(=O)c1ccc(OC[C@@H](O)CN2CCCCC2Cc2cccc(Cl)c2)cc1` (stereo partly drawn) [Compound 62, (2S)-1-(2-(3-chlorobenzyl)piperidin-1-yl)-3-(4-(methylsulfonyl)phenoxy)propan-2-ol], the EC50 at APOL1 G2 [1] is 642 nM. For the same compound, the AC50 at APOL1 G2 [2] was found to be 396 nM.

Turning to `Cc1c(C#N)cc(Cl)cc1CCN1C[C@@H](COc2ccc(S(C)(=O)=O)cc2)[C@H](C)C1` [Compound 144, 5-chloro-3-{2-[(3S,4S)-3-[(4-methanesulfon-ylphenoxy)meth-yl]-4-methyl-pyrrolidin-1-yl]-ethyl}-2-methyl-benzonitrile], the EC50 at APOL1 G2 [1] was determined as 256 nM. Besides, the AC50 at APOL1 G2 [2] was 423 nM.

With `C[C@H]1CC[C@H](COc2ccc(S(C)(=O)=O)cc2)CN1CCc1cccc(Cl)c1` [Compound 134, (25,5S)-1-[2-(3-chlorophenyl)ethyl]-5-[(4-methanesulfonylphenoxy)methyl]-2-methylpiperidine], the EC50 at APOL1 G2 [1] amounted to 908 nM. Further, the AC50 at APOL1 G2 [2] was 277 nM.

Consider `C[C@@H]1CN(CC(O)c2cccc(Cl)c2)C[C@H]1COc1ccc(S(C)(=O)=O)cc1` (single isomer, unassigned) [Compound 125, (1S or 1R)-1-(3-chlorophenyl)-2-[(3S,4S)-3-[(4-methanesulfonylphenoxy)methyl]-4-methylpyrrolidin-1-yl]ethan-1-ol], for which, on APOL1 G2 [1], the EC50 stood at 1550 nM. Besides, on APOL1 G2 [2], the AC50 came to 2350 nM.

For the compound `CC1(O)CN(CCc2cccc(Cl)c2)CC1COc1ccc(S(C)(=O)=O)cc1` (racemic) [Compound 208, rac-trans-1-[2-(3-chlorophenyl)ethyl]-4-[(4-methanesulfonylphenoxy)methyl]-3-methylpyrrolidin-3-ol], on APOL1 G2 [1], the EC50 is 3570 nM. The AC50 at APOL1 G2 [2] was below 420 nM.

Consider `CN(c1ccc(OCC2CCCN(CCc3cccc(Cl)c3)C2)cc1)S(C)(=O)=O` (single isomer, unassigned) [Compound 9, (R) or (S)—N-(4-((1-(3-chlorophenethyl)piperidin-3-yl)methoxy)phenyl)-N-methylmethanesulfonamide], for which the EC50 on APOL1 G2 [1] was 263 nM. The AC50 on APOL1 G2 [2] came to 151 nM.

Turning to `CN=S(C)(=O)c1ccc(OC[C@@H]2CN(CCc3cc(Cl)cc(C#N)c3)CCN2)cc1` (single isomer, unassigned) [Compound 187, 3-chloro-5-{2-[(3S)-3-({4-[(S or R)-methyl(methyl-imino)oxo-λ^6-sulfanyl]pheno-xy}methyl)pipera-zin-1-yl]ethyl}benzo-nitrile], the concentration giving a half-maximal response (EC50) on APOL1 G2 [1] was 436 nM. Further, the AC50 on APOL1 G2 [2] is 198 nM.
